“And” between values parts separate entries of the source, which are not always exact repeats. Equal values may be shown once. Read-outs that look alike come from different tables or passages of the source. Bounds are passed on as bounds.

Test in all cases: cell-based
The target in experiment [1] is T1, hNav1.7 (Homo sapiens, UniProt Q15858). The settings on record: IonWorks Quattro; read-out: IC50 Nav1.7.
Experiment [2] addresses T2, hNav1.5 (Homo sapiens, UniProt Q14524). The settings on record: IonWorks Quattro; read-out: IC50 Nav1.5.
Experiment [3] addresses hNav1.4 (Homo sapiens, UniProt P35499). The settings on record: for IC50: IonWorks Quattro, read-out: IC50 Nav1.4; for Nav1.4/Nav1.7: ratio of IonWorks Quattro IC50 values.
For experiment [4], the target named is hNav1.3 (Homo sapiens, UniProt Q9NY46). The settings on record: IonWorks Quattro; read-out: IC50 Nav1.3.
Experiment [5] addresses T1, hNav1.7. Format: cell-based. The settings on record: PatchXpress; * = at high concentrations compound would wash off slowly or not at all; read-out: PX hNav1.7 Tonic IC50.
Experiment [6] deals with T2, hNav1.5. The settings on record: PatchXpress; * = at high concentrations compound would wash off slowly or not at all; read-out: PX hNav1.5 Tonic IC50.

Sequence of hNav1.3 (Q9NY46 whole entry): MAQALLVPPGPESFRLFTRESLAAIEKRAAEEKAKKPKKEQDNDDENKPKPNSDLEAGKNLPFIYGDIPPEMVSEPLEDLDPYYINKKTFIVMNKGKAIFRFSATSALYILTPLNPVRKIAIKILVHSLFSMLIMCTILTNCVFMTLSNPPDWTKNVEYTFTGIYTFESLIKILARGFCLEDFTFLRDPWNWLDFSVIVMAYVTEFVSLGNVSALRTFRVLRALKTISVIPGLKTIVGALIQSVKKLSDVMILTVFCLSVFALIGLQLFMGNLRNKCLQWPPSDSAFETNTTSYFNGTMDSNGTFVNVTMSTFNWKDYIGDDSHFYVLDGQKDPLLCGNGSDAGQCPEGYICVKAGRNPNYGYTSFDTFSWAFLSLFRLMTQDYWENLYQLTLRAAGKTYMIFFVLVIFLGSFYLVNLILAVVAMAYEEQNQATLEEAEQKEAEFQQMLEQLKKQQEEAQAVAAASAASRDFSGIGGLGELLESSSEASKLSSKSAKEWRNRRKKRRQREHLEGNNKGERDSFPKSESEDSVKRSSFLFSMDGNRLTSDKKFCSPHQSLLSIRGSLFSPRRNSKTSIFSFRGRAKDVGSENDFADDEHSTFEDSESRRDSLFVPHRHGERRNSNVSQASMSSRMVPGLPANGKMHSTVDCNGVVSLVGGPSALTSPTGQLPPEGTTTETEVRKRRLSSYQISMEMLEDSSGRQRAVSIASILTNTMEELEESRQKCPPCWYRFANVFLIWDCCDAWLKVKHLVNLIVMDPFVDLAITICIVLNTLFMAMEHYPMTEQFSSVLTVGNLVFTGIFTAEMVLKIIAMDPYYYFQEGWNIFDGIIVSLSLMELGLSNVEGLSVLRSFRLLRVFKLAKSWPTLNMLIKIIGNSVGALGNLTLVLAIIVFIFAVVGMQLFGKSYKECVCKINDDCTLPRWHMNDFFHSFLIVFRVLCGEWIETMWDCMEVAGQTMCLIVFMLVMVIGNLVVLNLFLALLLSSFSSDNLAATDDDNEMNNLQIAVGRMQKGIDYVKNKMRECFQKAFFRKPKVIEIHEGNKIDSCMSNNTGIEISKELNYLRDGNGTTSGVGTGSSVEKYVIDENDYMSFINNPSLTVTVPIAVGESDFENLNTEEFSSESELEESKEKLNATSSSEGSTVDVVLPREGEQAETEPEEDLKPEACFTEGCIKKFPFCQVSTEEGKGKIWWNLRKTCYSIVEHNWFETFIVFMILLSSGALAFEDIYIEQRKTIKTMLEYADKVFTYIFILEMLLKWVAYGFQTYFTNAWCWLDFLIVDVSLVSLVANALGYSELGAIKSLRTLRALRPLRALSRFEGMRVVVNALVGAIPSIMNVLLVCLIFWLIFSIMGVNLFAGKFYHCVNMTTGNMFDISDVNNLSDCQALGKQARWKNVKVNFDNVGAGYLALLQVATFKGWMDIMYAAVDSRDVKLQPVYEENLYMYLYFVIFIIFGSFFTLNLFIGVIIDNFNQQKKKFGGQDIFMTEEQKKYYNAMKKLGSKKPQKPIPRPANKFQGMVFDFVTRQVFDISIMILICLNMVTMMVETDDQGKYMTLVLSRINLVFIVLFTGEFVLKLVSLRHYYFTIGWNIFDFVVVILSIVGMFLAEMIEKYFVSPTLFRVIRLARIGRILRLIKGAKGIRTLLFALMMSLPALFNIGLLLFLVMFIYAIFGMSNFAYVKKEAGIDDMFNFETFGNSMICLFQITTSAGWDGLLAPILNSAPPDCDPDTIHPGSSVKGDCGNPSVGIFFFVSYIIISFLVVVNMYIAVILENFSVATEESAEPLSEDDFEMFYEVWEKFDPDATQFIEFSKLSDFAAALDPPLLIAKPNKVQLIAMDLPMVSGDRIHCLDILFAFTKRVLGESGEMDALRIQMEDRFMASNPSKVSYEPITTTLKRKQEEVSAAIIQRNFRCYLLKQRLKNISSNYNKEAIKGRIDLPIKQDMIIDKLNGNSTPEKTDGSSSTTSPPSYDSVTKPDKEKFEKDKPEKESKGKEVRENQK
T1 sequence (Q15858 whole entry): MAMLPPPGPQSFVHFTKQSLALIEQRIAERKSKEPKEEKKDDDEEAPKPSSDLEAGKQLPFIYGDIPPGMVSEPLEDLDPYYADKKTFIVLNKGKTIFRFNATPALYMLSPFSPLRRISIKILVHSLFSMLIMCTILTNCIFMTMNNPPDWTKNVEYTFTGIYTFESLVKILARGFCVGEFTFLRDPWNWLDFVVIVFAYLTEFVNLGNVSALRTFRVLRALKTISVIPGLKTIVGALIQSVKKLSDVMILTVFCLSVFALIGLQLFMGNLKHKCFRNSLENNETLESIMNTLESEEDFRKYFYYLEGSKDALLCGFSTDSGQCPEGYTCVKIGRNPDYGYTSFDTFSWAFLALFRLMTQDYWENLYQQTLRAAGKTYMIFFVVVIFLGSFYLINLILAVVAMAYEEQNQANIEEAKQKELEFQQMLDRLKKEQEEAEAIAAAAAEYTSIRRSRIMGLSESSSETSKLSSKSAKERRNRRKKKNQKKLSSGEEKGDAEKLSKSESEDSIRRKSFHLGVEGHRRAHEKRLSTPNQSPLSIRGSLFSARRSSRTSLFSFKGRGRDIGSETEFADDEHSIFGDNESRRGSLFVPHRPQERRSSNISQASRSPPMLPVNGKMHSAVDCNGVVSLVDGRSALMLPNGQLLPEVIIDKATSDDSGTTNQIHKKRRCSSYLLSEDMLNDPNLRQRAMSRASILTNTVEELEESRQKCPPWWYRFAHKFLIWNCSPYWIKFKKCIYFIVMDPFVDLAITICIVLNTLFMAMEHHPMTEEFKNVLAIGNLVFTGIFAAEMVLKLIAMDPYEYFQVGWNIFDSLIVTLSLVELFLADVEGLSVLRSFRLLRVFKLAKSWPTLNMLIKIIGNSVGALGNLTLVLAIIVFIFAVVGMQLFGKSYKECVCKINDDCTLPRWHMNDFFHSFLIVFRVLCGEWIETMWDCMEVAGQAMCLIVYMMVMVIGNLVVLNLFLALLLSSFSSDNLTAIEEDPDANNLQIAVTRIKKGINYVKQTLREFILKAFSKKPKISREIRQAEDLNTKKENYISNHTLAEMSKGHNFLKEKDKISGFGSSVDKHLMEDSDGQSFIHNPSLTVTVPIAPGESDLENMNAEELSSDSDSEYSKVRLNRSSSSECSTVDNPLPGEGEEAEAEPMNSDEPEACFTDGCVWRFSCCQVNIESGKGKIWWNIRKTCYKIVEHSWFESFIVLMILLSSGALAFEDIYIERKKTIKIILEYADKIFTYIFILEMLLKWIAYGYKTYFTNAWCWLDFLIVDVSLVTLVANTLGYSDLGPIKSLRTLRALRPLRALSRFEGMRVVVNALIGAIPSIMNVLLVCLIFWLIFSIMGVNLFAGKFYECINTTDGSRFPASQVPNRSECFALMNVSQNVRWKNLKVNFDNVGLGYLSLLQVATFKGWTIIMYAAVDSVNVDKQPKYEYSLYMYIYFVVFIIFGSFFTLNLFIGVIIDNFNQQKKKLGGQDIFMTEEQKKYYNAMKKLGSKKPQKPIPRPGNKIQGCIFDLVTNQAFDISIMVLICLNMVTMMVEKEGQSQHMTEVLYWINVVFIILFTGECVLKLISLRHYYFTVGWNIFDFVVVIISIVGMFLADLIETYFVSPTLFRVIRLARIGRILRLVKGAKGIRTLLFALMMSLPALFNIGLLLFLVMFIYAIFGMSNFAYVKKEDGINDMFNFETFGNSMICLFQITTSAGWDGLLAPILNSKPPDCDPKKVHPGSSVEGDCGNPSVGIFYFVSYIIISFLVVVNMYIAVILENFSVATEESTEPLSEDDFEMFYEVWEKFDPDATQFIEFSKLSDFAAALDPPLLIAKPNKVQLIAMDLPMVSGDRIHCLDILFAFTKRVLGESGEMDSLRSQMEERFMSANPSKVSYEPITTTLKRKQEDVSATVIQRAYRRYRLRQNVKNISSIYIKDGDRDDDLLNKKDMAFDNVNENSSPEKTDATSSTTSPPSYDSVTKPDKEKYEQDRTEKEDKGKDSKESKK

Consider `CC[C@H](C)[C@H](NC(=O)[C@@H](NC(=O)[C@H](CCCCN)NC(=O)[C@H](CCCNC(=N)N)NC(=O)[C@@H]1CSSC[C@@H]2NC(=O)[C@H](C)NC(=O)[C@H](CCCNC(=N)N)NC(=O)[C@H](CCCCN)NC(=O)[C@H](CO)NC(=O)[C@H](CC(=O)O)NC(=O)[C@@H]3CSSC[C@H](NC(=O)[C@H](CCC(=O)O)NC(=O)[C@H](CC(C)C)NC(=O)CNC(=O)[C@H](CCC(=O)O)NC(=O)[C@H](CSSC[C@H](NC(=O)[C@@H](N)Cc4ccc(O)cc4)C(=O)N[C@@H](CCC(N)=O)C(=O)N[C@@H](CCCCN)C(=O)N[C@@H](Cc4c[nH]c5ccccc45)C(=O)N[C@@H](CCSC)C(=O)N[C@@H](Cc4c[nH]c5ccccc45)C(=O)N[C@@H]([C@@H](C)O)C(=O)N3)NC2=O)C(=O)N[C@@H](CCCCN)C(=O)N[C@@H](CC(C)C)C(=O)N[C@@H](Cc2c[nH]c3ccccc23)C(=O)N1)[C@@H](C)CC)C(N)=O` [compound 63], for which the IC50 in experiment [1] is 0.36 µM; in experiment [2] it was 9.8 µM; in experiment [3] it was greater than 5 µM; in experiment [4], greater than 5 µM; in experiment [5], 0.007 µM; in experiment [6], 9.33 µM. In addition, the Nav1.4/Nav1.7 in experiment [3] turned out to be 14.

Regarding `CSCC[C@@H]1NC(=O)[C@H](Cc2c[nH]c3ccccc23)NC(=O)[C@H](CCCCN)NC(=O)[C@H](CCC(N)=O)NC(=O)[C@@H](NC(=O)[C@@H](N)Cc2ccc(O)cc2)CSSC[C@@H]2NC(=O)[C@@H]3CSSC[C@@H](C(=O)N[C@@H](CCCNC(=N)N)C(=O)N[C@@H](CCCCN)C(=O)N[C@@H](Cc4ccc(O)cc4)C(=O)N[C@@H](CO)C(N)=O)NC(=O)[C@H](Cc4c[nH]c5ccccc45)NC(=O)[C@H](CC(C)C)NC(=O)[C@H](CCCCN)NC(=O)[C@H](CSSC[C@H](NC(=O)[C@H]([C@@H](C)O)NC(=O)[C@H](Cc4c[nH]c5ccccc45)NC1=O)C(=O)N[C@@H](CC(=O)O)C(=O)N[C@@H](CO)C(=O)N[C@@H](CCCCN)C(=O)N[C@@H](CCCNC(=N)N)C(=O)N[C@@H](C)C(=O)N3)NC(=O)[C@H](CCC(=O)O)NC(=O)[C@H](CC(C)C)NC(=O)CNC(=O)[C@H](CCC(=O)O)NC2=O` [compound 244], the IC50 was 0.34 µM in experiment [1], greater than 5 µM in experiment [2], greater than 5 µM in experiment [3] and greater than 5 µM in experiment [4].

On to `CSCC[C@@H]1NC(=O)[C@H](Cc2c[nH]c3ccccc23)NC(=O)[C@H](CCCCN)NC(=O)[C@H](CCC(N)=O)NC(=O)[C@@H](NC(=O)[C@@H](N)Cc2ccc(O)cc2)CSSC[C@@H]2NC(=O)[C@@H]3CSSC[C@@H](C(=O)N[C@@H](CCCNC(=N)N)C(=O)N[C@@H](CCCCN)C(=O)N[C@@H](Cc4ccc(O)cc4)C(=O)N[C@@H](CCC(=O)O)C(N)=O)NC(=O)[C@H](Cc4c[nH]c5ccccc45)NC(=O)[C@H](CC(C)C)NC(=O)[C@H](CCCCN)NC(=O)[C@H](CSSC[C@H](NC(=O)[C@H]([C@@H](C)O)NC(=O)[C@H](Cc4c[nH]c5ccccc45)NC1=O)C(=O)N[C@@H](CC(=O)O)C(=O)N[C@@H](CO)C(=O)N[C@@H](CCCCN)C(=O)N[C@@H](CCCNC(=N)N)C(=O)N[C@@H](C)C(=O)N3)NC(=O)[C@H](CCC(=O)O)NC(=O)[C@H](CC(C)C)NC(=O)CNC(=O)[C@H](CCC(=O)O)NC2=O` [compound 245], for which the IC50 was 4.7 µM in experiment [1], greater than 5 µM in experiment [2], greater than 5 µM in experiment [3] and greater than 5 µM in experiment [4].

In the case of `CCCC[C@@H]1NC(=O)[C@H](Cc2c[nH]c3ccccc23)NC(=O)[C@H](CCCCN)NC(=O)[C@H](CCC(N)=O)NC(=O)[C@@H](NC(=O)[C@@H](N)Cc2ccc(O)cc2)CSSC[C@@H]2NC(=O)[C@@H]3CSSC[C@@H](C(=O)N[C@@H](CCCNC(=N)N)C(=O)N[C@@H](CCCCN)C(=O)N[C@H](C(=O)N[C@H](C(N)=O)[C@@H](C)CC)[C@@H](C)CC)NC(=O)[C@H](Cc4c[nH]c5ccccc45)NC(=O)[C@H](CC(C)C)NC(=O)[C@H](CCCCN)NC(=O)[C@H](CSSC[C@H](NC(=O)[C@H](Cc4cn(CCCOCCOCCOCCOCCOCCOCCOCCOCCOCCOCCN)nn4)NC(=O)[C@H](Cc4c[nH]c5ccccc45)NC1=O)C(=O)N[C@@H](CC(=O)O)C(=O)N[C@@H](CO)C(=O)N[C@@H](CCCCN)C(=O)N[C@@H](CCCNC(=N)N)C(=O)N[C@@H](C)C(=O)N3)NC(=O)[C@H](CCCNC(=N)N)NC(=O)[C@H](CC(C)C)NC(=O)CNC(=O)[C@H](CCC(=O)O)NC2=O` [compound 254], the IC50 is 6.4 µM in experiment [1], greater than 7 µM in experiment [2], greater than 7 µM in experiment [3] and greater than 7 µM in experiment [4].

In the case of `CCCC[C@@H]1NC(=O)[C@H](Cc2c[nH]c3ccccc23)NC(=O)[C@H](CCCCN)NC(=O)[C@H](CCC(N)=O)NC(=O)[C@@H](NC(=O)[C@@H](N)Cc2ccc(O)cc2)CSSC[C@@H]2NC(=O)[C@@H]3CSSC[C@@H](C(=O)N[C@@H](CCCNC(=N)N)C(=O)N[C@@H](CCCCN)C(=O)N[C@H](C(=O)N[C@H](C(N)=O)[C@@H](C)CC)[C@@H](C)CC)NC(=O)[C@H](Cc4c[nH]c5ccccc45)NC(=O)[C@H](CC(C)C)NC(=O)[C@H](CCCCN)NC(=O)[C@H](CSSC[C@H](NC(=O)[C@H]([C@@H](C)O)NC(=O)[C@H](Cc4c[nH]c5ccccc45)NC1=O)C(=O)N[C@@H](CC(=O)O)C(=O)N[C@@H](CO)C(=O)N[C@@H](CCCCN)C(=O)N[C@@H](CCCNC(=N)N)C(=O)N[C@@H](C)C(=O)N3)NC(=O)[C@H](CCCNC(=N)N)NC(=O)[C@H](CC(C)C)NC(=O)CNC(=O)[C@H](CCC(=O)O)NC2=O` [compound 272], the IC50 in experiment [1] was greater than 5 µM; in experiment [2], greater than 5 µM; in experiment [3] it was greater than 5 µM; in experiment [4], greater than 5 µM; in experiment [5], 0.000586 µM.

For the molecule `CCCC[C@@H]1NC(=O)[C@H](Cc2c[nH]c3ccccc23)NC(=O)[C@H](CCCCN)NC(=O)[C@H](CCC(N)=O)NC(=O)[C@@H](NC(=O)[C@@H](N)Cc2ccc(O)cc2)CSSC[C@@H]2NC(=O)[C@@H]3CSSC[C@@H](C(=O)N[C@@H](CCCNC(=N)N)C(=O)N[C@@H](CCCCN)C(=O)N[C@H](C(=O)N[C@H](C(N)=O)[C@@H](C)CC)[C@@H](C)CC)NC(=O)[C@H](Cc4c[nH]c5ccccc45)NC(=O)[C@H](CC(C)C)NC(=O)[C@H](CCCCN)NC(=O)[C@H](CSSC[C@H](NC(=O)[C@H]([C@@H](C)O)NC(=O)[C@H](Cc4c[nH]c5ccccc45)NC1=O)C(=O)N[C@@H](CC(=O)O)C(=O)N[C@@H](CO)C(=O)N[C@@H](CCCCN)C(=O)N[C@@H](CCCNC(=N)N)C(=O)N[C@@H](C)C(=O)N3)NC(=O)[C@H](CCC(=O)O)NC(=O)[C@H](CC(C)C)NC(=O)CNC(=O)[C@H](CCC(=O)O)NC2=O` [compound 273], the IC50 in experiment [1] was 0.19 µM; in experiment [2] it was greater than 5 µM; in experiment [3], greater than 5 µM; in experiment [4], 4.1 µM.

With `CC[C@H](C)[C@H](NC(=O)[C@H](Cc1ccc(O)cc1)NC(=O)[C@H](CCCCN)NC(=O)[C@H](CCCNC(=N)N)NC(=O)[C@@H]1CSSC[C@@H]2NC(=O)[C@H](C)NC(=O)[C@H](CCCNC(=N)N)NC(=O)[C@H](CCCCN)NC(=O)[C@H](CO)NC(=O)[C@H](CC(=O)O)NC(=O)[C@@H]3CSSC[C@H](NC(=O)[C@H](CCCNC(=N)N)NC(=O)[C@H](CC(C)C)NC(=O)CNC(=O)[C@H](CCC(=O)O)NC(=O)[C@H](CSSC[C@H](NC(=O)[C@@H](N)CCC(=O)O)C(=O)N[C@@H](CCC(N)=O)C(=O)N[C@@H](CCCCN)C(=O)N[C@@H](Cc4c[nH]c5ccccc45)C(=O)N[C@@H](CCSC)C(=O)N[C@@H](Cc4c[nH]c5ccccc45)C(=O)N[C@@H]([C@@H](C)O)C(=O)N3)NC2=O)C(=O)N[C@@H](CCCCN)C(=O)N[C@@H](CC(C)C)C(=O)N[C@@H](Cc2c[nH]c3ccccc23)C(=O)N1)C(N)=O` [compound 278], the IC50 in experiment [1] is 0.046 µM; in experiment [2], greater than 5 µM; in experiment [3], 0.7 µM; in experiment [4], 0.3 µM. For the same molecule, the Nav1.4/Nav1.7 in experiment [3] is 16.

Regarding `CC[C@H](C)[C@H](NC(=O)[C@@H](NC(=O)[C@H](CCCCN)NC(=O)[C@H](CCCNC(=N)N)NC(=O)[C@@H]1CSSC[C@@H]2NC(=O)[C@H](C)NC(=O)[C@H](CCCNC(=N)N)NC(=O)[C@H](CCCCN)NC(=O)[C@H](CO)NC(=O)[C@H](CC(=O)O)NC(=O)[C@@H]3CSSC[C@H](NC(=O)[C@H](CCCNC(=N)N)NC(=O)[C@H](CC(C)C)NC(=O)CNC(=O)[C@H](CCC(=O)O)NC(=O)[C@H](CSSC[C@H](NC(=O)[C@@H](N)CCC(=O)O)C(=O)N[C@@H](CCC(N)=O)C(=O)N[C@@H](CCCCN)C(=O)N[C@@H](Cc4c[nH]c5ccccc45)C(=O)N[C@@H](CCSC)C(=O)N[C@@H](Cc4cccc5ccccc45)C(=O)N[C@@H]([C@@H](C)O)C(=O)N3)NC2=O)C(=O)N[C@@H](CCCCN)C(=O)N[C@@H](CC(C)C)C(=O)N[C@@H](Cc2c[nH]c3ccccc23)C(=O)N1)[C@@H](C)CC)C(N)=O` [compound 281], the IC50 in experiment [1] was 0.032 µM and 0.047 µM; in experiment [2], greater than 5 µM; in experiment [3], 0.7 µM and 0.5 µM; in experiment [4], 0.4 µM and 0.5 µM.

The values above are taken from patent US9636418B2 (priority 2013, dated 2017).
